Results as given in PMC6600574 (Molecules, 2019).

Legend:
[1] = tested on: recombinant human UGT1A7, 1A10, and UGT1A8; test: Glucuronidation by recombinant human UGTs; type: in vitro ADME; conditions: incubation with recombinant human UGT1A7, 1A10 and UGT1A8
HepG2 cell line = tested on: HepG2 cell line; parameters: method as in Etemad et al. (2015) [19]; conditions: after 24 and 72 h, highest concentration tested; ref Etemad et al. (2015) [19]; read-out: HepG2 cellular toxicity IC50; cited from earlier work
PBMCs = tested on: PBMCs; parameters: method as in Sipahi et al. (2016) [21]; conditions: aqueous extract of verbascoside; ref Sipahi et al. (2016) [21]; read-out: PBMC cellular toxicity IC50; cited from earlier work
[2] = target: T1, CYP 1A2 (liver microsomes) (Homo sapiens, UniProt P05177); test: Inhibition of hepatic microsome-catalyzed CYP oxidation; type: in vitro ADME; conditions: CYP 1A2, substrate OCA349, liver microsomes; read-out: Microsomal IC50 (µM) with 95% Confidence Intervals
T1 construct: from tissue; host or cells: human liver microsomes
T1 sequence (P05177 whole entry): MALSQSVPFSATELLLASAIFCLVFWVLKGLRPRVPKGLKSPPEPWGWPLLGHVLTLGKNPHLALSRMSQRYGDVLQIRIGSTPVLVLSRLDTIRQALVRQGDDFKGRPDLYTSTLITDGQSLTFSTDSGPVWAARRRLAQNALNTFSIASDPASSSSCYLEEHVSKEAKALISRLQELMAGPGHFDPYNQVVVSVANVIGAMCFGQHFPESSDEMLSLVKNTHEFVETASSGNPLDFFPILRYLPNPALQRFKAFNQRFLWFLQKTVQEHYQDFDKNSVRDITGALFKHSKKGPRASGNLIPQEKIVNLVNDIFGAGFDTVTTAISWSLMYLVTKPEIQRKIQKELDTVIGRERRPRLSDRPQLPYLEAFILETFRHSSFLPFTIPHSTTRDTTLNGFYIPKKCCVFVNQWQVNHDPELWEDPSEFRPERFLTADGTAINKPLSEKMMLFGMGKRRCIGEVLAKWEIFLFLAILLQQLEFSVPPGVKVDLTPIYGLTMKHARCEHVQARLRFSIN
Protocol: (§1) Incubations were carried out in a total volume of 100 µl of 100 mM Tris-HCl buffer (pH 7.4) in all black, flat-bottom Costar 96-well plates (Corning Incorporated, Corning, NY, USA). […] The samples were then preincubated at 37 °C for 10 min. The reactions were initiated by the addition of NADPH, and 0–10 µM 7-hydroxycoumarin was used as the standard. The fluorescent signal was measured with a Victor^2 1420 multilabel plate counter (PerkinElmer Lifesciences Wallac, Turku, Finland) with excitation and emission wavelengths of 405 and 460 nm, respectively. Fluorescence was monitored every 2 min for 40 min from where the concentration was calculated at the various time points. From these, oxidation rates (µM/min) and the relative remaining activity of the sample at different concentrations were calculated. The data were fit to sigmoidal dose-response curves with nonlinear regression, and IC50 values (the concentration at which the sample reduced the metabolism of the CYP substrate by 50%) were determined. […] This was analyzed using nonlinear equations in Graph Pad Prism, which produced IC50 values and its 95% confidence interval as the results.

[3] = target: T2, CYP 2C19 (liver microsomes) (Homo sapiens, UniProt P33261); test: as above; type: in vitro ADME; conditions: CYP 2C19, substrate TFD032, liver microsomes
T2 construct: from tissue; host or cells: human liver microsomes
T2 sequence (P33261 whole entry): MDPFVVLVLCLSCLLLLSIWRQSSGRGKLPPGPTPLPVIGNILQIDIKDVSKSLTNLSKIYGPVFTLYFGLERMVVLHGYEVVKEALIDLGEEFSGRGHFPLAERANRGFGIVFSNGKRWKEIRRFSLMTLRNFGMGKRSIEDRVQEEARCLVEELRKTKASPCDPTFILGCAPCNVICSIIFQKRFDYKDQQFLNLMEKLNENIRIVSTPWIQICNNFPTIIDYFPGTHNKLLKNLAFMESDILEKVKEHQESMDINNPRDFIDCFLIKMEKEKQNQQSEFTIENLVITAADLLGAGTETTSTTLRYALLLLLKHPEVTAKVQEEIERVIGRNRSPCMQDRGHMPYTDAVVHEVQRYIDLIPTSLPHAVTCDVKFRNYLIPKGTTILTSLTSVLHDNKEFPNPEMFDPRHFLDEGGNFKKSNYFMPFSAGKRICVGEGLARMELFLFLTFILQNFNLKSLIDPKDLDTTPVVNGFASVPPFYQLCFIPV
Protocol: as §1

[4] = target: T3, CYP 3A4 (liver microsomes) (Homo sapiens, UniProt P08684); test: as above; type: in vitro ADME; conditions: CYP 3A4, substrate OCA369, liver microsomes; read-out: Microsomal IC50 (µM) with 95% Confidence Intervals
T3 construct: from tissue; host or cells: human liver microsomes
T3 sequence (P08684 whole entry): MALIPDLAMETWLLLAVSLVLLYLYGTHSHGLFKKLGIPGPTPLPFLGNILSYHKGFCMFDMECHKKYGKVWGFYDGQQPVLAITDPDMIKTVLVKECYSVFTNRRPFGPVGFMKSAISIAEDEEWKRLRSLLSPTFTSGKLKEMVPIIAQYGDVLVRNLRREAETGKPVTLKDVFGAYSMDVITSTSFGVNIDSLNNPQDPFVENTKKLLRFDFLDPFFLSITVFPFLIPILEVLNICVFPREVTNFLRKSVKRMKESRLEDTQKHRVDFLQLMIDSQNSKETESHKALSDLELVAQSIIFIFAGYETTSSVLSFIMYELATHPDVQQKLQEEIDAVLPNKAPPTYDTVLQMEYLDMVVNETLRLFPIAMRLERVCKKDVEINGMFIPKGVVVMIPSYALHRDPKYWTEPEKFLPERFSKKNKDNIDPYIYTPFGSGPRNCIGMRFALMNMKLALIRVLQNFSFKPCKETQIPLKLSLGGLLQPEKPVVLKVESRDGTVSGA
Protocol: as §1

[5] = target: T4, CYP 2D6 (liver microsomes) (Homo sapiens, UniProt P10635); test: as above; type: in vitro ADME; conditions: CYP 2D6, substrate TFD023, liver microsomes; read-out: Microsomal IC50 (µM) with 95% Confidence Intervals
T4 construct: from tissue; host or cells: human liver microsomes
T4 sequence (P10635 whole entry): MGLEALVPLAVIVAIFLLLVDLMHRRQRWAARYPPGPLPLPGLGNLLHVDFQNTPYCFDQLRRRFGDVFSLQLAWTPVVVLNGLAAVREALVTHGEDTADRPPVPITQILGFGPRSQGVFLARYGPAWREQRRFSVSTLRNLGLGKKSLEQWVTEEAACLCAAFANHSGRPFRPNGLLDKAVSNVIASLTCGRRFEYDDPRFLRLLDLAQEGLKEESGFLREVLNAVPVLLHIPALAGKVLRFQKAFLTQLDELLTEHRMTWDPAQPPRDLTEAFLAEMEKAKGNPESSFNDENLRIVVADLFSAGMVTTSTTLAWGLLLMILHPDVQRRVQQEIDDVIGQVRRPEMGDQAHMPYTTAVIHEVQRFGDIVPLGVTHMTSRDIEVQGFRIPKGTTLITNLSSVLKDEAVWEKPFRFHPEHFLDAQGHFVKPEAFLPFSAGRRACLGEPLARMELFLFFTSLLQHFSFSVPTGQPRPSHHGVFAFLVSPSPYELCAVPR
Protocol: as §1

[6] = target: T5, CYP 2A6 (liver microsomes) (Homo sapiens, UniProt P11509); test: as above; type: in vitro ADME; conditions: CYP 2A6, substrate coumarin, read-out: Microsomal IC50 (µM) with 95% Confidence Intervals
T5 construct: from tissue; host or cells: human liver microsomes
T5 sequence (P11509 1-494): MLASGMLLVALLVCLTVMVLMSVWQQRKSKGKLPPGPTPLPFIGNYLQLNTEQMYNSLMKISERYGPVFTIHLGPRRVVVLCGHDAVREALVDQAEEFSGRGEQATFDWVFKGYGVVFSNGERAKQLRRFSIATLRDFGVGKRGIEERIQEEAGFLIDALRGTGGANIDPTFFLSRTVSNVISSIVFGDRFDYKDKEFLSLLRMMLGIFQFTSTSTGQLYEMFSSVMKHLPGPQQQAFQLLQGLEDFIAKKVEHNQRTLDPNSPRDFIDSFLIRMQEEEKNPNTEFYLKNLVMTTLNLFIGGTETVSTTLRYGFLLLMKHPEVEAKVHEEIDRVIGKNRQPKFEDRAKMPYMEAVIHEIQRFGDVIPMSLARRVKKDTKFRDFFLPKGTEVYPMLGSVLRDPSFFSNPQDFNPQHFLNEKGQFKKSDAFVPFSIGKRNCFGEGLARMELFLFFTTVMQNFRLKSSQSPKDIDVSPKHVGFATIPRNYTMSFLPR
Protocol: as §1

[7] = target: T6, CYP 1A1 (placental microsomes) (Homo sapiens, UniProt P04798); test: Inhibition of placental microsome-catalyzed CYP oxidation; type: in vitro ADME; conditions: CYP 1A1, substrate TFD024, placental microsomes
T6 construct: from tissue; host or cells: human placental microsomes
T6 sequence (P04798 1-512): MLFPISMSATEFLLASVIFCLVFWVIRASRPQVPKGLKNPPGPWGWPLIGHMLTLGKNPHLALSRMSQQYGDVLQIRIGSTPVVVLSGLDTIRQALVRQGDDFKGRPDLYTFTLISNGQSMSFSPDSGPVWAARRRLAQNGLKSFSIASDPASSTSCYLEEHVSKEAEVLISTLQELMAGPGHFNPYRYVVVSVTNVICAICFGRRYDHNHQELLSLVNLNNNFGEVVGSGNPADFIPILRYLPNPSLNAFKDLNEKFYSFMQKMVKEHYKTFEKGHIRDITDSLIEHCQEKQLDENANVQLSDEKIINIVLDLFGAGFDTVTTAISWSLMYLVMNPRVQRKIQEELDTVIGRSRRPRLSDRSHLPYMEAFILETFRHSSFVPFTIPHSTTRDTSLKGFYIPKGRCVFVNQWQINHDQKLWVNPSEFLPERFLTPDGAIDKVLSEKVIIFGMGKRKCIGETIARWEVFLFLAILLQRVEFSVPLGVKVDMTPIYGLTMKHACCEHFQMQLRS
Protocol: as §1

[8] = parameters: method as in Koo et al. (2006) [16]; conditions: ref Koo et al. (2006) [16]; read-out: DPPH radical scavenging EC50; cited from earlier work

Metabolites formed [1]: low levels of glucuronide metabolites
IC50 [2]: 24 µM
Microsomal IC50 (µM) with 95% Confidence Intervals [3]: Stimulation ^c
Microsomal IC50 (µM) with 95% Confidence Intervals ([3]; listed as verbascoside): weak ability to stimulate
IC50 [4]: 76 µM
IC50 [5]: 96 µM
IC50 [6]: 135 µM
Microsomal IC50 (µM) with 95% Confidence Intervals [7]: did not inhibit
IC50 ([7]; read-out: Microsomal IC50 (µM) with 95% Confidence Intervals): 350 µM
SMILES: C[C@@H]1O[C@@H](O[C@@H]2[C@@H](O)[C@H](OCCc3ccc(O)c(O)c3)O[C@H](CO)[C@H]2OC(=O)/C=C/c2ccc(O)c(O)c2)[C@H](O)[C@H](O)[C@H]1O [Verbascoside]
IC50 (HepG2 cell line): > 400 µM
IC50 (PBMCs): 384 µM
EC50 [8]: 1.28 µM
